{"source": "patent US20250057788A1", "about": "“COMPOSITIONS AND METHODS FOR TREATMENT OF CHRONIC PAIN AND DEPRESSION” (priority 2023, published 2025)", "key": {"[1]": {"test_system": "formalin-induced pain (paw licking behavior)", "assay": "Rat formalin test (paw licking, acute and delayed/chronic phase)", "format": "in vivo", "details": "for Acute paw lick response, Mean / Chronic (delayed) paw lick response, Mean / delayed paw licking responses vs. control: 100 μM; for Acute paw lick response, Mean / Chronic (delayed) paw lick response, Mean / delayed paw licking responses vs. control / enhancement of the effects of ketamine 100 μM: Example 4; for Paw licking time, Acute, Mean / Paw licking time, Chronic, Mean: NaOH where added equimolar; for Paw licking time, Acute, Mean: acute phase 0-10 min after formalin; for Paw licking time, Chronic, Mean: delayed phase from 10 min after formalin; for enhancement of the effects of ketamine 100 μM: hydroxide combined with ketamine 100 μM; for delayed hind paw licking (marginal means), Mean: TAS2R ligand .5 mM", "protocol": "In this test, effects are measured on both acute and delayed formalin-induced pain, as reflected in paw licking behavior.\nMethods: All studies were performed at Psychogenics, Inc. (Tarrytown, NY). Male SD rats (Envigo) were used in the study. All rats were examined and weighed (about 200 g) prior to initiation of the study to assure adequate health and suitability. For the formalin test, rats were habituated for 30 min in observation chambers with cameras positioned underneath. After the pre-treatment time, animals received a subcutaneous injection into the plantar surface of the left hind-paw with 15 μl of 5% formalin using a Hamilton micro-syringe and a 30-gauge needle.\nRats were returned to the observation chamber and immediately observed for behavior. The total time spent licking, flinching or biting the treated hind-paw over the next 35 min was recorded and videos were scored by a trained observer blinded to the treatment group. The acute response was evaluated in 5 min intervals for 0-10 min, and the delayed response was evaluated from 10-35 or 10-40 min.\nFor this experiment, effects of ketamine alone vs. ketamine+NaOH were assessed at concentrations between 30 uM (μM) and […] vs. control. Secondary analyses evaluated relative effects of ketamine+NaOH vs. ketamine alone. Analyses were performed by between-group t-tests or multiway ANOVA as expected. For each experiment, outliers ±2SD from the group means were removed from the analyses as flagged in study reports.\nMethods: Overall methods were the same as for Example 1. However, for this study, the concentration of ketamine was fixed at 100 μM across conditions, and the ratio of NaOH to ketamine was varied from 1:10 (0.1 ratio) to 1:2 (0.5 ratio) to 3:4 (0.75 ratio) to 1:1 (1.0 ratio). An ANOVA was conducted across ratios to determine statistical significance.\nMethods: Formalin test methods were the same as for examples 1 and 2. […] Denatonium was additionally administered combined with Ketamine 100 μM.\nIn order to evaluate the specificity of the synergistic effect between ketamine and NaOH, formalin tests were evaluated in combination with other hydroxides, including Ca(OH)2 and KOH. […] Formalin tests were therefore conducted in the presence of 100 μM S-ketamine relative to racemic ketamine."}, "[2]": {"test_system": "depression-related behaviors in SNL animals with chronic pain", "assay": "Forced swim test in spinal nerve ligation (SNL) rats", "format": "in vivo, rat", "details": "ketamine NaOH at 0.5 ratio, FIG. 5", "source_text": "Chronic pain may also lead to depressive symptoms that cause additional disability and may reflect an independent treatment target. Anti-depression effects may be modeled in rodents using behavioral measures including the forced swim test, which measures the time that rodents remain immobile when placed in water. In one model, chronic pain Is created by spinal nerve ligation (SNL) in which a ligation is placed around the left L5 nerve, which leads to hypersensitivity of the paw withdrawal threshold.\nMethods: Male Sprague Dawley rats (about 150 g on arrival) from Envigo were used. Upon receipt animals were group housed for the remainder of their stay at PsychoGenics. […]\nSpinal nerve ligation: Under general anesthesia with continuous inhalation of isoflurane, surgery was performed with aseptic procedures. […] Each rat was monitored until awake and moving freely around the recovery chamber. […]\nForced swim test: The forced swim (FS) test is considered to predict anti-depression effects. When rats are forced to swim in a small cylinder from which no escape is possible, they readily adopt a characteristic immobile posture and make no further attempts to escape except for small movements needed to prevent them from drowning. […] Immobility, climbing, and swimming behaviors were recorded every 5 sec for a total of 60 counts per subject. […]"}}, "note": "Counter-ions that a name gives are not always drawn."}
{"smiles": "CNC1(c2ccccc2Cl)CCCCC1=O", "note": "(racemic) [Ketamine, Ketamine HCl]", "values": [{"measurement": "Acute paw lick response, Mean", "setting": "[1]", "value": 54.5}, {"measurement": "Chronic (delayed) paw lick response, Mean", "setting": "[1]", "value": 196.4}, {"measurement": "delayed paw licking responses vs. control", "setting": "[1]", "value": "did not significantly reduce delayed responses"}, {"measurement": "inhibition of delayed response", "setting": "[1]; concentrations of ≥30 mM, all p<0.005", "value": "significant inhibition of delayed response"}, {"measurement": "effects on acute response", "setting": "[1]; doses of ≥100 mM, all p<0.001, suggesting non-specific behavioral effects", "value": "significant effects"}, {"measurement": "Paw licking time, Acute, Mean", "setting": "[1]; ketamine 30 μM", "value": 55.20, "unit": "s"}, {"measurement": "Paw licking time, Chronic, Mean", "setting": "[1]; ketamine 30 μM", "value": 56.00, "unit": "s"}, {"measurement": "delayed response, post-hoc difference vs. control", "setting": "[1]; ketamine 30 μM, one-way ANOVA", "value": "significant post-hoc differences vs. control"}, {"measurement": "Paw licking time, Acute, Mean", "setting": "[1]; ketamine 100 μM", "value": 50.95, "unit": "s"}, {"measurement": "Paw licking time, Chronic, Mean", "setting": "[1]; ketamine 100 μM", "value": 140.71, "unit": "s"}, {"measurement": "Paw licking time, Acute, Mean", "setting": "[1]; ketamine 300 μM", "value": 40.50, "unit": "s"}, {"measurement": "Paw licking time, Chronic, Mean", "setting": "[1]; ketamine 300 μM", "value": 147.00, "unit": "s"}, {"measurement": "Paw licking time, Acute, Mean", "setting": "[1]; ketamine 30 mM", "value": 39.44, "unit": "s"}, {"measurement": "Paw licking time, Chronic, Mean", "setting": "[1]; ketamine 30 mM", "value": 49.88, "unit": "s"}, {"measurement": "Paw licking time, Acute, Mean", "setting": "[1]; ketamine 100 mM", "value": 0.11, "unit": "s"}, {"measurement": "Paw licking time, Chronic, Mean", "setting": "[1]; ketamine 100 mM", "value": 0.00, "unit": "s"}, {"measurement": "Paw licking time, Acute, Mean", "setting": "[1]; ketamine 300 mM", "value": 0.11, "unit": "s"}, {"measurement": "Paw licking time, Chronic, Mean", "setting": "[1]; ketamine 300 mM", "value": 0.00, "unit": "s"}, {"measurement": "immobility time", "setting": "[2]", "value": "significantly reduced immobility time"}, {"measurement": "swimming time", "setting": "[2]", "value": "increased swimming time"}]}
{"smiles": "[Ca+2].[OH-].[OH-]", "note": "[Ca(OH)2]", "values": [{"measurement": "enhancement of the effects of ketamine 100 μM", "setting": "[1]", "value": "Neither Ca(OH)2 or KOH enhanced"}]}
{"smiles": "[K+].[OH-]", "note": "[KOH]", "values": [{"measurement": "enhancement of the effects of ketamine 100 μM", "setting": "[1]", "value": "Neither Ca(OH)2 or KOH enhanced"}]}
{"smiles": "C=C[C@H]1C[N@@]2CC[C@H]1C[C@@H]2[C@@H](O)c1ccnc2ccc(OC)cc12", "note": "[Quinidine, Quinidine gluconate]", "values": [{"measurement": "delayed hind paw licking (marginal means), Mean", "setting": "[1]", "value": 288.6, "unit": "s"}]}
{"smiles": "CC[N+](CC)(CC(=O)Nc1c(C)cccc1C)Cc1ccccc1", "note": "[Denatonium, Denatonium benzoate]", "values": [{"measurement": "delayed hyperalgesic response vs. control", "setting": "[1]; 0.5 mM, p=0.029", "value": "significant reduction in hyperalgesia"}, {"measurement": "delayed hind paw licking (marginal means), Mean", "setting": "[1]", "value": 161.0, "unit": "s"}]}
{"smiles": "CN[C@]1(c2ccccc2Cl)CCCCC1=O", "note": "[S-ketamine]", "values": [{"measurement": "Acute paw lick response, Mean", "setting": "[1]", "value": 50.5}, {"measurement": "Chronic (delayed) paw lick response, Mean", "setting": "[1]", "value": 120.6}, {"measurement": "delayed paw licking responses vs. control", "setting": "[1]", "value": "numeric decreases in delayed paw licking vs. control, but the differences were not statistically significant"}]}
